Publication PMC9692097, “Immunosuppressants Tacrolimus and Sirolimus revert the cardiac antifibrotic properties of p38-MAPK inhibition in 3D-multicellular human iPSC-heart organoids” (Frontiers in Cell and Developmental Biology, 2022)

Experiments:
IL-11 and phospho-p38 = experiment: Western blot for IL-11 and phospho-p38 in TGF-β1 stimulated hHOs; type: cell-based, human
Experimental: (§1) Cells were lysed in M-PER Mammalian Protein Extraction Reagent (78501, Thermo Scientific) buffer, and hHOs were lysed in T-PER Tissue Protein Extraction Reagent (78510, Thermo Scientific). The amount of protein was determined by Bradford assay using BSA as a standard. The primary antibodies were purchased from commercial sources as follows: anti-phospho-S6 Ribosomal Protein (1:1000, 5364, CST); anti-phospho-4E-BP1 (1:1000, 2855, CST); anti-4E-BP1 (1:1000, 9644, CST); anti-phospho-p38 (1:1000, 4631, CST); anti-p38 (1:1000, 9212, CST); anti-phospho-AKT (1:1000, 9271, CST); anti-Collagen I (1:1000, ab34710, abcam); anti-IL-11 (1:1000, ab76589, abcam); anti-β-actin (1:1000, A5441, Sigma). The secondary antibodies used are as follows: goat anti-rabbit IgG (HRP) (1:5000, sc-2054, Santa cruz), and anti-mouse IgG (HRP) (1:5000, 7076, CST).

COL1A1 [1] = experiment: COL1A1 expression in NHCF-V cardiac fibroblasts (western blot, immunocytochemistry); type: cell-based, human; conditions: for COL1A1 protein expression: 5 ng/ml TGF-β1 for 24 h, SB202190 10 μM, TAC 10 μM, Sirolimus 200 nM
Experimental: Cells were fixed by 4% PFA treatment for 15 min and stored in PBS at 4°C. Blocking was performed for 30–45 min in a blocking buffer containing 1% BSA, 0.5% Triton X-100 and 0.1 M glycine in PBS. After washing three times with PBS, primary antibody anti-Collagen I (1:200, ab34710, Abcam) was added to the blocking buffer (w/o glycine) and incubated overnight at 4°C. The next day, cells were washed three times with PBS, and secondary antibody donkey anti-rabbit Alexa Fluro 594 (1:1000, A21207, Invitrogen) was added in 1% BSA-PBS for 2 h at RT. After washing three times with PBS, 1:10,000 Hoechst 33342 was added for nuclear counterstaining. Images were taken with Keyence.
After 3 days of treatment on unstimulated CFs, we treated cells with 5 ng/ml of TGF-β1 in combination with the inhibitors for another 24 h to recapitulate pathological conditions of heart disease and induced a forced expression of ECMs, with a particular focus on COL1A1 as a major component of the Collagen type I.

[2] = tested on: iPSC-derived human heart organoids (hHOs); experiment: Cardiotoxicity MTT assay in iPSC-derived human heart organoids (96 h); type: cell-based; conditions: hHOs day 15, MTT, read-out: IC50 (hHO cellular viability)
Experimental: SB202190, Tacrolimus, and Sirolimus were prepared alone or in combinations mixed in DMSO for each experiment. hHOs were differentiated and seeded separately in low-binding 96-w plates. The effectiveness of the treatment was measured after the usage of decreasing concentrations in a 1:2 ratio to day 15 of developing heart organoids. All treatments were applied by reducing dosages of SB202190, Tacrolimus, or Sirolimus in monotherapy or combination. The proliferation capacity as a functional assay was determined using an MTT assay after 96 h (4 days). Cytotoxicity profiling was drafted by obtaining absorbance metrics at 595 nm using a particular microplate reader; then, IC50 values were calculated using GraphPad Prism 7.

[3] = Cytotoxic assay in cardiac fibroblasts (crystal violet, 96 h); type: cell-based; conditions: human, human ventricular cardiac fibroblasts (NHCF-V), NHCF-V cell line, read-out: IC50 (cytotoxicity, CF viability)
Experimental: SB202190, Tacrolimus, and Sirolimus were freshly and individually prepared in DMSO for each individual experiment. Cardiac fibroblasts were seeded individually in 96-well plates (5,000 cells per well). The treatment effectiveness was assayed after applying reducing concentrations in a 1:2 fixed ratio to cycling cells in the exponential phase. All treatments were assessed within reducing doses of SB202190, Tacrolimus, or Sirolimus in monotherapy or combination in fixed proportions a day after the seeding. The proliferation viability was determined by crystal violet after 96 h. Cytotoxicity profiles were measured by absorbance at 595 nm using a microplate reader; then, IC50 values were estimated using GraphPad Prism 7 software.

[4] = tested on: mTORC1 downstream targets p4E-BP1 and pS6K; experiment: Western blot for pathway targets in NHCF-V; type: cell-based, human; conditions: 200 nM
Experimental: as §1

hHO spontaneous beating = experiment: Organoid beating evaluation (beating count vs untreated organoid); type: cell-based, human; conditions: hHOs, 96 h
Excerpt: For organoid beating evaluation, we measured the beating count at 10 s intervals and then compared it to the beating count of the untreated organoid for each case in biological triplicates.

COL1A1 [5] = experiment: COL1A1 expression in TGF-β1 stimulated hHOs (western blot, immunocytochemistry); type: cell-based, human; conditions: 5 ng/ml TGF-β1 for 24 h, SB202190 10 μM, TAC 10 μM, Sirolimus 200 nM
Experimental: Immunofluorescence staining of hHOs was conducted as previously described. hHOs were fixed by 4% PFA solution for 45–60 min at room temperature and incubated in blocking/permeabilization solution containing 10% normal donkey serum (Abcam), 0.5% Triton X-100 (nacalai tesque) and 0.5% BSA (nacalai tesque) at 4°C overnight. Subsequently, hHOs were stained with primary and secondary antibodies in PBS containing 1% normal donkey serum, 0.5% Triton X-100 and 0.5% BSA, respectively. Nuclei were stained with Hoechst 33342 (1:1000) before mounting. A confocal laser scanning microscope (Olympus FV3000) was used for fluorescent observation. Primary antibodies used are listed as follows: anti-Vimentin (1:200, ab11256, Abcam); anti-Collagen I (1:200, ab34710, Abcam); anti-WT1 (1:200, ab89901, Abcam); anti-ZO-1 (1:200, 33-9100, Invitrogen); anti-CD31/PECAM1 (1:50, ab28364, Abcam); anti-Cardiac Troponin T (1:200, ab8295, Abcam); anti-NFAT2 (1:200, ab25916, Abcam); anti-CD90/THY1 (1:200, ab133350, Abcam). […]
Cells were lysed in M-PER Mammalian Protein Extraction Reagent (78501, Thermo Scientific) buffer, and hHOs were lysed in T-PER Tissue Protein Extraction Reagent (78510, Thermo Scientific). The amount of protein was determined by Bradford assay using BSA as a standard. […]

RAS = tested on: RAS; design: method as in earlier work; conditions: RAS antagonist, ref Reif et al., 1999, Katzav et al., 2001, Clarke et al., 2003, 2004, Kafri et al., 2005, Nevo et al., 2011, Rokni et al., 2022; cited from earlier work

SMILES	levels of IL-11 and phospho-p38 (IL-11 and phospho-p38)	COL1A1 protein expression (COL1A1 [1])	IC50 [2]	IC50 at 96 h [3]	inhibition of mTORC1 downstream targets p4E-BP1 and pS6K [4]	safe dosages preserving average beating rates compared to untreated organoids (from ... downwards) (hHO spontaneous beating)	TGF-β1 driven COL1A1 expression / ECM depositions (COL1A1 [5])	COL1A1 levels in TGF-β1 unstimulated condition (COL1A1 [1]; unstimulated, western blot)	inflammation and fibrosis in animal models (RAS)
CO[C@H]1C[C@@H]2CC[C@@H](C)[C@@](O)(O2)C(=O)C(=O)N2CCCC[C@H]2C(=O)O[C@H]([C@H](C)C[C@@H]2CC[C@@H](O)[C@H](OC)C2)CC(=O)[C@H](C)/C=C(\C)[C@@H](O)[C@@H](OC)C(=O)[C@H](C)C[C@H](C)/C=C/C=C/C=C/1C [Sirolimus]	rescued levels of IL-11 and phospho-p38	independent effect in reducing COL1A1 protein expression	5.01 ± 0.4 µM	3.54 ± 0.2 µM	inhibit the mTORC1 downstream targets p4E-BP1 and pS6K	≤ 2.5 µM	this phenotype is lost in heart organoids	–	–
C=CC[C@@H]1/C=C(\C)C[C@H](C)C[C@H](OC)[C@H]2O[C@@](O)(C(=O)C(=O)N3CCCC[C@H]3C(=O)O[C@H](/C(C)=C/[C@@H]3CC[C@@H](O)[C@H](OC)C3)[C@H](C)[C@@H](O)CC1=O)[C@H](C)C[C@@H]2OC [Tacrolimus]	–	no effect	19.9 µM	12.6 µM	–	≤ 12 µM	–	mildly increase COL1A1 levels	–
Oc1ccc(-c2nc(-c3ccncc3)c(-c3ccc(F)cc3)[nH]2)cc1 [SB202190]	–	independent effect in reducing COL1A1 protein expression	72.4 µM	13.9 µM	–	≤ 100 µM	effectively reduced TGF-β1 driven COL1A1 expression	–	–
CC(C)=CCC/C(C)=C/CC/C(C)=C/CSc1ccccc1C(=O)O [FTS, Farnesythiosalicylic acid]	–	–	–	–	–	–	–	–	decreasing inflammation and fibrosis in animal models
